This is an account of results in ChEMBL document CHEMBL1201862, “PubChem BioAssay data set” (2004).

Among the test systems are RPMI-8226; EKVX; UO-31; NCI-H522; HCT-15; M14; K562; NCI/ADR-RES; Malme-3M; T47D; HOP-62; A549; DU-145; SR; SNB-75; NCI-H460; OVCAR-4; CCRF-CEM; CAKI-1; OVCAR-3.
Assay in all cases: NCI tumour cell line growth inhibition, 48 h

Each structure is given as a SMILES string.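 Tested at 5 concentrations; 48 h exposure; 96-well plates; endpoints linearly interpolated, else capped at highest concentration. Here, GI50 denotes the concentration required for 50% inhibition of growth.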 Calls of active or inactive are those of the source. No stated cut-off is given here; in the data, active = GI50 up to about 1.1 µM and inactive = higher.

For the compound `CN(C)CCCNc1c2c(nc3ccc(Cl)cc13)CCCC2`, the GI50 in the assay on RPMI-8226 was 7.59 µM (inactive); in the assay with EKVX, 14.9 µM (inactive); in the assay with UO-31, 10 µM (inactive); with NCI-H522, 12.2 µM (inactive); in the assay on HCT-15 it was 13.3 µM; with M14 it was 13.8 µM (inactive). Moreover, the GI50 in the assay on K562 is 0.492 µM (active); in the assay with NCI/ADR-RES, 18.1 µM (inactive); in the assay on Malme-3M it was 15.6 µM (inactive); in the assay with T47D, 26.5 µM (inactive); in the assay with HOP-62 it was 12.9 µM (inactive); with A549, 16.8 µM (inactive). In addition, the GI50 is 13.9 µM (inactive) in the assay with DU-145; 2.55 µM (inactive) with SR; 15.7 µM (inactive) in the assay with SNB-75; 9.93 µM (inactive) in the assay on NCI-H460; 15.3 µM (inactive) in the assay with OVCAR-4; 3.93 µM (inactive) in the assay on CCRF-CEM. For the same compound, the results for the GI50 with CAKI-1 and in the assay with OVCAR-3 were 23.3 µM (inactive) and 14.8 µM (inactive), respectively.
In the case of `CCOC(=O)c1c(-c2ccccc2)oc(=O)c(Cc2cccc3cccnc23)c1-c1ccccc1`, the GI50 in the assay with RPMI-8226 was > 10 µM (inactive); in the assay with EKVX, > 10 µM (inactive); with UO-31, > 10 µM (inactive); in the assay on NCI-H522, > 10 µM (inactive); in the assay with HCT-15 it was greater than 10 µM; in the assay on M14, > 10 µM (inactive). The GI50 in the assay on K562, in the assay with NCI/ADR-RES, with Malme-3M, in the assay with T47D, with HOP-62 and in the assay on A549 was > 10 µM (inactive) in each case. In addition, the GI50 in the assay with DU-145, with SR, in the assay with SNB-75, with NCI-H460, in the assay with OVCAR-4 and in the assay on CCRF-CEM was > 10 µM (inactive) throughout. Moreover, the GI50 with CAKI-1 and with OVCAR-3 was > 10 µM (inactive) each time.
With `C[C@H]1[C@H]2[C@H](C[C@@]3(C)C4=CC[C@H]5C(C)(C)[C@@H](OC6OCC(O)C(O)C6O)CC[C@@]56C[C@@]46CC[C@]23C)O[C@@]2(O)[C@@H]1OC(C)(C)[C@H]2O` (stereo not given in full), the GI50 is 1.15 µM (inactive) with RPMI-8226; 1.12 µM (inactive) in the assay with EKVX; 3.57 µM (inactive) in the assay on UO-31; 0.605 µM (active) with NCI-H522; 1.05 µM in the assay with HCT-15; 3.83 µM (inactive) in the assay with M14. In addition, the GI50 in the assay with K562 was 2.39 µM (inactive); with NCI/ADR-RES, 2.67 µM (inactive); in the assay on Malme-3M it was 0.993 µM (active); with T47D, 0.83 µM (active); with HOP-62, 1.78 µM (inactive); with A549 it was 1.4 µM (inactive). Further, the GI50 in the assay on DU-145 was 1.02 µM (active); in the assay with SR, 1.54 µM (inactive); in the assay with SNB-75, 1.62 µM (inactive); with NCI-H460 it was 2.12 µM (inactive); with OVCAR-4, 1.92 µM (inactive); in the assay with CCRF-CEM it was 0.791 µM (active). Also, the GI50 with CAKI-1 is 2.05 µM (inactive); with OVCAR-3, 3.01 µM (inactive).
For `CC(OP(=O)(O)O)C(N)C(=O)O` (stereo not given), the GI50 with RPMI-8226 was > 100 µM (inactive); in the assay on EKVX, > 100 µM (inactive); with UO-31, > 100 µM (inactive); with NCI-H522, > 100 µM (inactive); in the assay on HCT-15, greater than 100 µM; with M14 it was > 100 µM (inactive). The GI50 in the assay on K562, in the assay with NCI/ADR-RES, with Malme-3M, with T47D, in the assay with HOP-62 and in the assay with A549 was > 100 µM (inactive) throughout. The GI50 in the assay on DU-145, in the assay with SR, with SNB-75, with NCI-H460, in the assay on OVCAR-4 and with CCRF-CEM was > 100 µM (inactive) each time. Moreover, the GI50 in the assay with CAKI-1 and with OVCAR-3 was > 100 µM (inactive) throughout.
Consider `C(=N\c1ccc(-c2nc3ccccc3s2)cc1)/c1ccco1`, for which the GI50 with RPMI-8226 was 41.6 µM (inactive); in the assay with EKVX it was 37.2 µM (inactive); with UO-31, 62.4 µM (inactive); in the assay on NCI-H522 it was 44.5 µM (inactive); in the assay on HCT-15, 51.2 µM; with M14, 93.5 µM (inactive). Also, the GI50 in the assay with K562 was 41.3 µM (inactive); in the assay on NCI/ADR-RES it was 60.8 µM (inactive); with Malme-3M, > 100 µM (inactive); in the assay with T47D it was 41.6 µM (inactive); with HOP-62 it was 30.4 µM (inactive); in the assay with A549, 56.6 µM (inactive). In addition, the GI50 is > 100 µM (inactive) in the assay on DU-145; 50.2 µM (inactive) in the assay on SR; 85.5 µM (inactive) with SNB-75; 40.3 µM (inactive) with NCI-H460; 59.6 µM (inactive) in the assay with OVCAR-4; 37.6 µM (inactive) in the assay with CCRF-CEM. The figures for the GI50 in the assay on CAKI-1 and with OVCAR-3 were 49.1 µM (inactive) and 43.6 µM (inactive), respectively.
For `C=C(CN1CC2C[C@](C(=O)OC)(c3cc4ccccc4[nH]3)C1C(OC)C2OC)S(=O)(=O)c1ccccc1` (stereo not given in full), the GI50 with RPMI-8226 was 0.245 µM (active); with EKVX, 3.3 µM (inactive); with UO-31, 1.49 µM (inactive); in the assay on NCI-H522, 1.7 µM (inactive); in the assay with HCT-15 it was 3.08 µM; in the assay with M14, 2.91 µM (inactive). Besides, the GI50 was 2.75 µM (inactive) in the assay on K562; 4.8 µM (inactive) with NCI/ADR-RES; 0.43 µM (active) in the assay with Malme-3M; 4.6 µM (inactive) in the assay on T47D; 4.78 µM (inactive) with HOP-62; 3.13 µM (inactive) in the assay on A549. Moreover, the GI50 with DU-145 is 4 µM (inactive); with SR, 2.7 µM (inactive); in the assay on SNB-75 it was 2.74 µM (inactive); in the assay on NCI-H460 it was 3.07 µM (inactive); with OVCAR-4 it was 3.04 µM (inactive); in the assay on CCRF-CEM, 2.24 µM (inactive). Also, the GI50 in the assay with CAKI-1 was 3.71 µM (inactive); with OVCAR-3, 3.35 µM (inactive).
`Cn1c(N/N=C/c2ccccc2)nc(-c2ccc3c(c2)OCO3)c(C#N)c1=O`: the GI50 in the assay with RPMI-8226 was 47.1 µM (inactive); in the assay with EKVX, 70.6 µM (inactive); in the assay with UO-31, 77.3 µM (inactive); in the assay with NCI-H522, > 100 µM (inactive); in the assay on HCT-15 it was 36.5 µM; in the assay with M14 it was > 100 µM (inactive). For the same compound, the GI50 with K562 is 87.3 µM (inactive); with NCI/ADR-RES it was > 100 µM (inactive); in the assay with Malme-3M, > 100 µM (inactive); with T47D, > 100 µM (inactive); in the assay with HOP-62, > 100 µM (inactive); in the assay with A549, 45.4 µM (inactive). Further, the GI50 in the assay on DU-145 was 84.5 µM (inactive); in the assay with SR, 25.5 µM (inactive); with SNB-75, > 100 µM (inactive); in the assay with NCI-H460, 87.7 µM (inactive); in the assay on OVCAR-4, 61.7 µM (inactive); in the assay on CCRF-CEM, 94 µM (inactive). The figures for the GI50 with CAKI-1 and in the assay on OVCAR-3 were 99.3 µM (inactive) and 27.5 µM (inactive), respectively.
On to `COc1ccc2c(c1)CCc1c-2n(CCN2CCCCC2)c2ccc(OC)cc12`, for which the GI50 was > 100 µM (inactive) with RPMI-8226; > 100 µM (inactive) in the assay with EKVX; > 100 µM (inactive) in the assay with UO-31; 61.5 µM (inactive) in the assay on NCI-H522; greater than 100 µM in the assay on HCT-15; > 100 µM (inactive) with M14. Besides, the GI50 in the assay with K562 was 78.7 µM (inactive); with NCI/ADR-RES, 28.2 µM (inactive); with Malme-3M it was > 100 µM (inactive); in the assay with T47D it was > 100 µM (inactive); in the assay with HOP-62 it was > 100 µM (inactive); in the assay on A549, > 100 µM (inactive). Further, the GI50 in the assay with DU-145, with SR, in the assay with SNB-75, in the assay on NCI-H460, in the assay with OVCAR-4 and in the assay with CCRF-CEM was > 100 µM (inactive) in each case. Also, the GI50 with CAKI-1 and with OVCAR-3 was > 100 µM (inactive) throughout.
With `COc1ccc2c(c1)/C(=C\c1c(Cl)[nH]c3cc(C)c(OC)cc13)C(=O)N2`, the GI50 in the assay on RPMI-8226 was 0.942 µM (active); in the assay on EKVX, 2.1 µM (inactive); in the assay with UO-31 it was 3.13 µM (inactive); with NCI-H522, 1.19 µM (inactive); with HCT-15, 0.467 µM; in the assay on M14, 0.698 µM (active). The GI50 with K562 was 0.522 µM (active); with NCI/ADR-RES, 0.811 µM (active); with Malme-3M it was 1.28 µM (inactive); in the assay on T47D it was 12.9 µM (inactive); with HOP-62, 4.44 µM (inactive); with A549, 1.19 µM (inactive). Further, the GI50 was 1.66 µM (inactive) in the assay on DU-145; 0.357 µM (active) with SR; 0.984 µM (active) in the assay on SNB-75; 0.76 µM (active) with NCI-H460; 1.45 µM (inactive) with OVCAR-4; 0.726 µM (active) with CCRF-CEM. Moreover, the GI50 with CAKI-1 is 1.46 µM (inactive); with OVCAR-3, 0.347 µM (active).
On to `COC(=O)C1(Cc2ccccc2C)Cc2ccc(C)cc2C1=O` (stereo not given), for which the GI50 was 17 µM (inactive) with RPMI-8226; 41.4 µM (inactive) with EKVX; 36.6 µM (inactive) with UO-31; 17.3 µM (inactive) in the assay on NCI-H522; 27.4 µM in the assay on HCT-15; 37.2 µM (inactive) in the assay with M14. Moreover, the GI50 was 42.2 µM (inactive) in the assay with K562; 16.7 µM (inactive) with NCI/ADR-RES; 23.2 µM (inactive) in the assay on Malme-3M; 22.8 µM (inactive) with T47D; 56.4 µM (inactive) with HOP-62; 33.2 µM (inactive) in the assay on A549. Moreover, the GI50 in the assay with DU-145 is 56.8 µM (inactive); in the assay with SR, 13.9 µM (inactive); in the assay with SNB-75 it was 58.3 µM (inactive); in the assay with NCI-H460 it was 30.8 µM (inactive); in the assay with OVCAR-4, 36.6 µM (inactive); in the assay with CCRF-CEM, 48 µM (inactive). Besides, the values for the GI50 in the assay on CAKI-1 and in the assay with OVCAR-3 were 36.1 µM (inactive) and 27.7 µM (inactive), respectively.
